Inconclusive results are not listed. The source made the active and inactive calls.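 How the source made its calls: active means Compounds that reduce signal, with fitted half-maximal dose at or under twice the top valid tested dose; inconclusive means Poor fit, or flat curve losing 30 to 70% of signal; inactive means Potency past limit, flat within 30%, or opposite direction.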
experiment: HEK293T cell cytotoxicity, dose response, cytotoxicity control, ATP luminescence, cherry-pick samples (AID 687005); details: HEK293T viability, ATP luminescence (CellTiter-Glo), 48 h; at 23.5 µM (top of the series)

Question: Which activity change, negative = cytotoxicity does the source give for C[C@@H]1CN([C@H](C)CO)C(=O)Cc2cc(NC(=O)Nc3cccc4ccccc34)ccc2O[C@@H]1CN(C)Cc1ccc(C(=O)O)cc1 here?
Answer: -26.3% (inactive)

Question: With C[C@H]1CN([C@@H](C)CO)C(=O)c2cc(NC(=O)Nc3ccc4c(c3)OCO4)ccc2O[C@@H]1CN(C)CC1CCCCC1 as the compound, how does the activity change, negative = cytotoxicity read?
Answer: -55.7% (inactive)

Question: Which activity change, negative = cytotoxicity does the source give for C[C@H](CO)N1C[C@H](C)[C@@H](CN(C)S(=O)(=O)c2ccc(Cl)cc2)Oc2c(NS(=O)(=O)c3ccc(F)cc3)cccc2C1=O here?
Answer: -1.86% (inactive)

Question: With C/C=C/c1ccc([C@H]2[C@@H](CO)N(C(=O)CC)[C@@H]2CNC(=O)C2CC2)cc1 as the compound, how does the activity change, negative = cytotoxicity read?
Answer: 42.4% (inactive)

Question: Which activity change, negative = cytotoxicity does the source give for COc1ccc(NC(=O)N(C)C[C@@H]2OCCCC[C@@H](C)Oc3ccc(NC(=O)Nc4ccc5c(c4)OCO5)cc3C(=O)N([C@@H](C)CO)C[C@H]2C)cc1 here?
Answer: -17% (inactive)

Question: With O=C(C[C@@H]1C[C@@H]2c3cc(NC(=O)Nc4ccc(F)cc4)ccc3O[C@@H]2[C@@H](CO)O1)NCC1CC1 as the compound, how does the activity change, negative = cytotoxicity read?
Answer: 26.7% (inactive)

same assay, conditions: HEK293T viability, ATP luminescence (CellTiter-Glo), 48 h; at 26 µM (top of the series)

Question: Which activity change, negative = cytotoxicity does the source give for Fc1ccccc1NC(=S)NCCc1cccc(Cl)c1 here?
Answer: 1.09% (inactive)

Question: Which activity change, negative = cytotoxicity does the source give for C[C@@H]1CN([C@@H](C)CO)C(=O)c2cc(-c3cncnc3)cnc2O[C@H]1CN(C)C(=O)Cc1ccccc1 here?
Answer: -0.143% (inactive)

Question: For C[C@@H]1CN([C@H](C)CO)C(=O)c2cc(NC(=O)Nc3cccc4ccccc34)ccc2O[C@@H]1CN(C)C(=O)Nc1ccccc1, which activity change, negative = cytotoxicity is on record?
Answer: -5.06% (inactive)

Question: Which activity change, negative = cytotoxicity does the source give for C[C@@H]1CN([C@@H](C)CO)C(=O)c2cc(NC(=O)C3CC3)ccc2O[C@H]1CN(C)Cc1ccc2c(c1)OCO2 here?
Answer: 9.22% (inactive)

Question: With N#C[C@H]1[C@@H](c2ccccc2)[C@@H](CO)N1C(=O)Cc1ccccc1 as the compound, how does the activity change, negative = cytotoxicity read?
Answer: -9.76% (inactive)

Question: For Cc1noc(C)c1S(=O)(=O)Nc1ccc2c(c1)CC(=O)N([C@@H](C)CO)C[C@H](C)[C@@H](CN(C)S(=O)(=O)c1cn(C)cn1)O2, which activity change, negative = cytotoxicity is on record?
Answer: 50.4% (inactive)

Question: Which activity change, negative = cytotoxicity does the source give for CC(C)NC(=O)N(C)C[C@H]1OCCCC[C@H](C)Oc2ccc(NC(=O)c3ccccc3)cc2C(=O)N([C@@H](C)CO)C[C@@H]1C here?
Answer: 55.3% (inactive)

Question: With CCOC(=O)NC(=S)Nc1ccc(C(C)(C)C)cc1 as the compound, how does the activity change, negative = cytotoxicity read?
Answer: -11.3% (inactive)

Question: Which activity change, negative = cytotoxicity does the source give for COc1ccccc1CNC(=O)C[C@@H]1CC[C@@H]2[C@H](COC[C@@H](O)CN2Cc2ccccc2)O1 here?
Answer: -10.7% (inactive)

Question: With CC(=O)N1[C@@H](CO)[C@H](c2ccc(-c3ccccc3)cc2)[C@@H]1CNC(=O)C1CC1 as the compound, how does the activity change, negative = cytotoxicity read?
Answer: 13.9% (inactive)

Question: With C[C@@H]1CN([C@@H](C)CO)C(=O)c2cc(-c3ccc(C#N)cc3)cnc2O[C@@H]1CN(C)C(=O)Nc1ccc(F)cc1 as the compound, how does the activity change, negative = cytotoxicity read?
Answer: 5.67% (inactive)

Question: With COc1ccccc1-c1cnc2c(c1)C(=O)N([C@H](C)CO)C[C@@H](C)[C@H](CN(C)Cc1cncnc1)O2 as the compound, how does the activity change, negative = cytotoxicity read?
Answer: 28.4% (inactive)

Question: With O=C(NC(=S)Nc1ccccc1N1CCOCC1)c1ccc(Br)cc1 as the compound, how does the activity change, negative = cytotoxicity read?
Answer: -8.37% (inactive)

Question: With O=C([C@H]1[C@H](CO)[C@H]2Cn3c(cccc3=O)[C@@H]1N2Cc1cccc(Cl)c1)N1CCOCC1 as the compound, how does the activity change, negative = cytotoxicity read?
Answer: -20.6% (inactive)

Question: For O=C([C@@H]1[C@@H](CO)[C@@H]2Cn3c(cccc3=O)[C@@H]2N1CCC(F)(F)F)N1CCCCC1, which activity change, negative = cytotoxicity is on record?
Answer: 1.78% (inactive)

Question: For CCN1C(=S)N[C@@H](c2cccc(F)c2)C(C(=O)OC)=C1C, which activity change, negative = cytotoxicity is on record?
Answer: 5.06% (inactive)

Question: Which activity change, negative = cytotoxicity does the source give for C[C@H](CO)N1C[C@H](C)[C@@H](CN(C)C(=O)Nc2ccc3c(c2)OCO3)Oc2ccc(NS(=O)(=O)c3cccs3)cc2C1=O here?
Answer: -1.88% (inactive)

Question: With CNC(=O)CN(c1ccc(OC)cc1)S(=O)(=O)c1ccc(F)cc1 as the compound, how does the activity change, negative = cytotoxicity read?
Answer: 31.6% (inactive)

Question: For COc1ccc(CNC(=S)NCc2ccc(OC(C)C)cc2)cc1, which activity change, negative = cytotoxicity is on record?
Answer: 19.2% (inactive)

Question: With COCC(=O)Nc1ccc2c(c1)C(=O)N(C)C[C@@H](OC)[C@H](C)CN(Cc1ccccc1)[C@@H](C)CO2 as the compound, how does the activity change, negative = cytotoxicity read?
Answer: 7.91% (inactive)

Question: Which activity change, negative = cytotoxicity does the source give for C[C@@H]1CN([C@H](C)CO)C(=O)c2cc(C#CC(C)(C)O)cnc2O[C@@H]1CN(C)Cc1cncnc1 here?
Answer: 35.1% (inactive)

Question: For O=C(C[C@H]1CC[C@H]2[C@@H](COC[C@@H](O)CN2S(=O)(=O)c2ccc(Oc3ccccc3)cc2)O1)NC1CCC1, which activity change, negative = cytotoxicity is on record?
Answer: 16.3% (inactive)

Question: Which activity change, negative = cytotoxicity does the source give for C[C@H]1CN([C@@H](C)CO)C(=O)Cc2cc(N(C)C)ccc2O[C@@H]1CN(C)C(=O)Nc1ccc(C(F)(F)F)cc1 here?
Answer: -28.9% (inactive)

Question: Which activity change, negative = cytotoxicity does the source give for Cc1noc(C)c1NC(=O)N(C)C[C@@H]1Oc2ccc(NC(=O)C3CC3)cc2CC(=O)N([C@H](C)CO)C[C@@H]1C here?
Answer: 30.7% (inactive)

Question: For C#CCN(C(=O)c1ccc(OC2CCN(C(=O)CCOC)CC2)cc1)C1CCCCC1, which activity change, negative = cytotoxicity is on record?
Answer: 8.74% (inactive)

Question: For C/C=C/c1cnc2c(c1)C(=O)N([C@H](C)CO)C[C@@H](C)[C@@H](CN(C)C(=O)C1CCCCC1)O2, which activity change, negative = cytotoxicity is on record?
Answer: 38.1% (inactive)

Question: With C[C@@H]1CCCCO[C@H](CN(C)Cc2ccncc2)[C@@H](C)CN([C@H](C)CO)C(=O)c2cc(N(C)C)ccc2O1 as the compound, how does the activity change, negative = cytotoxicity read?
Answer: -3.32% (inactive)

Question: For Cc1cc(C)c(NC(=O)C2CCCCN2C)c(C)c1 (stereo not drawn), which activity change, negative = cytotoxicity is on record?
Answer: 10.1% (inactive)

Question: For CNC[C@@H]1Oc2cc(Br)ccc2S(=O)(=O)N([C@H](C)CO)C[C@H]1C, which activity change, negative = cytotoxicity is on record?
Answer: 28.3% (inactive)

Question: With O=C(c1ccco1)N1N=C(c2cccs2)CC1c1ccc(F)cc1 (stereo not drawn) as the compound, how does the activity change, negative = cytotoxicity read?
Answer: -39% (inactive)

Question: For C[C@H]1CN([C@@H](C)CO)C(=O)c2cc(C#CC3(O)CCCC3)cnc2O[C@@H]1CN(C)Cc1cccnc1, which activity change, negative = cytotoxicity is on record?
Answer: 13.8% (inactive)

Question: For CC(C)NC(=O)N(C)C[C@@H]1OCCCC[C@@H](C)Oc2ccc(NC(=O)c3ccccc3)cc2C(=O)N([C@H](C)CO)C[C@@H]1C, which activity change, negative = cytotoxicity is on record?
Answer: -7.94% (inactive)

Question: For O=C(C[C@@H]1CC[C@H](NC(=O)Cc2ccccn2)[C@H](CO)O1)NCCc1ccccc1, which activity change, negative = cytotoxicity is on record?
Answer: -2.62% (inactive)

Question: Which activity change, negative = cytotoxicity does the source give for CC(C)NC(=O)Nc1ccc2c(c1)C(=O)N([C@@H](C)CO)C[C@@H](C)[C@H](CN(C)C(=O)c1ccncc1)OCCCC[C@H](C)O2 here?
Answer: 23.3% (inactive)

Question: For COc1ccc(CN(C)C[C@@H]2Oc3ccc(NC(=O)C4CC4)cc3C(=O)N([C@H](C)CO)C[C@H]2C)cc1, which activity change, negative = cytotoxicity is on record?
Answer: 15.3% (inactive)

Question: With Cc1ccc(S(=O)(=O)Nc2ccc3c(c2)C(=O)N([C@H](C)CO)C[C@H](C)[C@@H](CN(C)Cc2ccccc2)O3)cc1 as the compound, how does the activity change, negative = cytotoxicity read?
Answer: 43.1% (inactive)

Question: For O=C(C[C@@H]1CC[C@H]2[C@@H](COC[C@@H](O)CN2C(=O)Nc2ccc(Cl)cc2)O1)NCCc1ccncc1, which activity change, negative = cytotoxicity is on record?
Answer: -9.46% (inactive)

Question: With CN1C(=O)c2cc(NC(=O)NC3CCCC3)ccc2OC[C@H]2O[C@@H](CC(=O)NC3CCC3)CC[C@@H]21 as the compound, how does the activity change, negative = cytotoxicity read?
Answer: 0.295% (inactive)

Question: Which activity change, negative = cytotoxicity does the source give for COc1cccc(NC(=S)N2CCC(Cc3ccccc3)CC2)c1 here?
Answer: 15.7% (inactive)

Question: With COc1ccc(NC(=O)Nc2ccc3c(c2)C(=O)N([C@H](C)CO)C[C@@H](C)[C@H](CN(C)S(=O)(=O)c2ccc(Cl)cc2)OCCCC[C@@H](C)O3)cc1 as the compound, how does the activity change, negative = cytotoxicity read?
Answer: -9.56% (inactive)

Question: Which activity change, negative = cytotoxicity does the source give for N#Cc1ccc(C23CC4(C2)[C@H](CN(Cc2ccc(-c5ccccc5)cc2)[C@@H]4c2ccccc2)C3c2ccc(C(F)(F)F)cc2)cc1 (stereo partly drawn) here?
Answer: -11.2% (inactive)

Question: For CO[C@H]1CN(C)C(=O)c2cc(NS(=O)(=O)c3ccc(C)cc3)ccc2OC[C@@H](C)N(C(=O)NC(C)C)C[C@@H]1C, which activity change, negative = cytotoxicity is on record?
Answer: 26.2% (inactive)

Question: Which activity change, negative = cytotoxicity does the source give for CO[C@H]1CN(C)C(=O)c2cc(NC(=O)c3ccccc3F)ccc2OC[C@H](C)N(CC2CCOCC2)C[C@H]1C here?
Answer: 57% (inactive)

Question: Which activity change, negative = cytotoxicity does the source give for CCCNC(=O)N1C[C@@H]2[C@H](c3ccccc31)[C@H](CO)N2Cc1ccc(OC)cc1 here?
Answer: 2.66% (inactive)

Question: With COc1ccc(NC(=O)N(C)C[C@H]2OCc3ccccc3-c3c(n(C)c4ccccc34)C(=O)N([C@H](C)CO)C[C@@H]2C)cc1 as the compound, how does the activity change, negative = cytotoxicity read?
Answer: -4.07% (inactive)

Question: For CC=Cc1ccc2n(c1=O)C[C@@H]1[C@@H](CO)[C@H](C(=O)N3CCCCC3)N(Cc3ccccc3)[C@H]21 (mixture of isomers), which activity change, negative = cytotoxicity is on record?
Answer: 11.7% (inactive)

Question: With Cc1ccc(S(=O)(=O)N(CC(=O)NCCSC2CCCCC2)c2ccccc2F)cc1 as the compound, how does the activity change, negative = cytotoxicity read?
Answer: 5.79% (inactive)

Question: For COCCNC(=O)C[C@H]1C=C[C@H](NS(=O)(=O)c2ccc(C)cc2)[C@@H](CO)O1, which activity change, negative = cytotoxicity is on record?
Answer: -8.29% (inactive)

Question: With Cc1noc(C)c1S(=O)(=O)N(C)C[C@@H]1Oc2c(NC(=O)c3cnccn3)cccc2C(=O)N([C@@H](C)CO)C[C@@H]1C as the compound, how does the activity change, negative = cytotoxicity read?
Answer: 6.5% (inactive)

Question: For C[C@H](CO)N1C[C@H](C)[C@@H](CN(C)Cc2ccncc2)OCCCC[C@H](C)Oc2ccc(NC(=O)NC3CCCCC3)cc2C1=O, which activity change, negative = cytotoxicity is on record?
Answer: -0.008% (inactive)

Question: Which activity change, negative = cytotoxicity does the source give for O=C(COC(=O)CCC1CCCC1)Nc1nc2c(F)c(F)c(F)cc2s1 here?
Answer: -8.53% (inactive)

same assay, conditions: HEK293T viability, ATP luminescence (CellTiter-Glo), 48 h; at 28.5 µM (top of the series)

Question: Which activity change, negative = cytotoxicity does the source give for C[C@@H]1CN([C@@H](C)CO)C(=O)CCCn2cc(nn2)CO[C@@H]1CN(C)C(=O)CCCN(C)C here?
Answer: 6.9% (inactive)

same assay, conditions: HEK293T viability, ATP luminescence (CellTiter-Glo), 48 h; at 30 µM (top of the series)

Question: With CNC(=O)CN(c1ccc(C)cc1)S(=O)(=O)c1ccccc1 as the compound, how does the activity change, negative = cytotoxicity read?
Answer: -17.7% (inactive)

same assay, conditions: HEK293T viability, ATP luminescence (CellTiter-Glo), 48 h; at 35 µM (top of the series)

Question: Which activity change, negative = cytotoxicity does the source give for O=C(NC(=S)NCC1COc2ccccc2O1)c1ccc(Cl)cc1 (stereo not drawn) here?
Answer: -9.32% (inactive)

same assay, conditions: HEK293T viability, ATP luminescence (CellTiter-Glo), 48 h; at 42 µM (top of the series)

Question: With CCCC(=O)N1CCCC1(C)C(=O)Nc1ccc(C)c(C)c1 (stereo not drawn) as the compound, how does the activity change, negative = cytotoxicity read?
Answer: -11.7% (inactive)

Question: For Cc1cccc(C)c1NC(=O)C1NC(=O)CC1c1ccccc1 (stereo not drawn), which activity change, negative = cytotoxicity is on record?
Answer: 0.826% (inactive)

Question: Which activity change, negative = cytotoxicity does the source give for CCC(=O)N1CCCC1(C)C(=O)Nc1ccc(C)c(C)c1 (stereo not drawn) here?
Answer: -1.9% (inactive)
